Data: patent US20100317703A1, “METHOD FOR INHIBITING BRASSININ OXIDASE” (UNIVERSITY OF SASKATCHEWAN, priority 2009, published 2010)
Blank lines part the entries; values can stand above or below the compound they belong to.

Key:
[1] = system: mycelial cultures of L. maculans; experiment: Antifungal activity: total protein content of cell-free extracts of treated mycelial cultures; assay type: cell-based, Leptosphaeria maculans; details: 24 h, control culture = 1.0
Method: (§1) Liquid cultures of L. maculans (virulent isolate BJ-125, IBCN collection, AAFC) were handled as described in the literature.^13 Fungal spores were subcultured on V8 agar under continuous light at 23±1° C.; after 15 days, fungal spores were collected aseptically and stored at −20° C.^14 Liquid cultures were initiated by inoculating minimal media (100 mL)^15 with fungal spores at 10^7/mL in Erlenmeyer flasks, followed by incubation on a shaker under constant light at 23±1° C.
(§2) For analysis of BO induction, 72 h old liquid cultures (20 mL) were co-incubated with test compounds (final concentrations in culture 0.10, 0.20, and 0.50 mM), and after an additional incubation for 24 h, the mycelia were separated from the culture broth by filtration.
(§3) Frozen mycelia (0.3-1.4 g) from L. maculans were suspended in ice-cold extraction buffer (1 mL) and ground (mortar) for 5 min. The extraction buffer consisted of diethanolamine(DEA, 25 mM, pH 8.3), 5% (v/v) glycerol, D,L-dithiothreitol (DTT, 1 mM), and 1/200 (v/v) protease inhibitor cocktail (P-8215, Sigma-Aldrich Canada). The homogenate was centrifuged at 4° C. for 30 min at 50000 g. The resulting supernatant was used for determination of specific activity of BO. Protein concentrations were determined as described by Bradford^16 using the Coomassie Brilliant Blue method with BSA as a standard.
(§4) Mycelial cultures of L. maculans were incubated with the test compounds (0.10, 0.20, and 0.50 mM) for 24 h to evaluate potential induction of BO activity. The cultures were filtered, the mycelia were extracted with extraction buffer, and the resulting cell-free extracts were analyzed for BO activity using brassinin (1) as substrate. The total protein content of each cell-free extract was determined using a calibration curve built using BSA.

brassinin oxidase (BO) [2] = experiment: Inhibitory effect of paldoxins on purified BO (brassinin as substrate, HPLC-DAD); assay type: biochemical, Leptosphaeria maculans; details: for Inhibiton (%) of BO: brassinin 0.10 mM, purified BO, ± SD of four independent experiments
Method: For purification of brassinin oxidase, 600 mL of 48 h old liquid cultures prepared as described above, were incubated with 3-phenylindole (19, 0.05 mM final concentration in cultures to induce BO) for an additional 24 h and then gravity filtered to separate mycelia from culture broth. The mycelia was stored at −20° C. up to 72 h and used to obtain protein extracts containing BO activity.
(§5) The reaction mixture contained DEA (20 mM, pH 8.3), DTT (1 mM), 0.1% (v/v) Triton X-100, brassinin (1, 1.0 mM), phenazine (0.50 mM), and protein extract (50-100 μL) in a total volume of 500 μL. The reaction was carried out at 24° C. for 20 min. A control reaction was stopped by the addition of EtOAc (2 mL) at t=0. The product was extracted with EtOAc (2 mL) and concentrated to dryness. The extract was dissolved in CH3CN (200 μL) and analyzed by HPLC-DAD. The amounts of brassinin (1) and indole-3-carboxaldehyde (3) in the reaction assay were determined using calibration curves built with […]. One enzyme unit (U) is defined as the amount of the enzyme that catalyzes the conversion of one micromole of substrate per minute (μmol·min^−1=U).
The purification of BO was performed in four steps as previously described.^17 The purified enzyme was used for screening test compounds for inhibitory activity. To determine potential inhibitors of BO, inhibition experiments were carried out using brassinin (1, 0.10 mM final concentration) and test compounds (0.10 and 0.30 mM final concentrations). Standard deviation values for assays were determined from four independent experiments.
The inhibitory effects of test compounds on BO activity were tested at 0.10 mM and 0.30 mM using brassinin (1) as substrate (0.10 mM) and purified BO.

[3] = system: brassinin oxidase (BO) activity in mycelial cultures of L. maculans; experiment: Inducer effect of paldoxins: BO activity in cell-free extracts of treated mycelial cultures; assay type: cell-based, Leptosphaeria maculans; details: 24 h, control culture = 1.0
Method: as §1, §2, §3, §5, §4

brassinin oxidase (BO) [4] = details: 0.30 mM; reference compound, cited from ref. 17; cited from earlier work
[5] = 0.10 mM added to mycelial cultures
[6] = 0.20 mM added to mycelial cultures
[7] = 0.50 mM added to mycelial cultures

Structure (SMILES): CSC1=NCc2c([nH]c3ccccc23)S1 [Cyclobrassinin]
Inhibiton (%) of BO (brassinin oxidase (BO) [2]; test compound 0.10 mM): 23 ± 6%
Inhibiton (%) of BO (brassinin oxidase (BO) [2]; test compound 0.30 mM): 37 ± 8%

Structure (SMILES): Fc1ccc2c(-c3ccccc3)c[nH]c2c1 [I(e), 6-Fluoro-3-phenylindole]
Inhibiton (%) of BO (brassinin oxidase (BO) [2]; test compound 0.10 mM): 11 ± 4%
Inhibiton (%) of BO (brassinin oxidase (BO) [2]; test compound 0.30 mM): 17 ± 6%

Structure (SMILES): c1ccc2cc(-c3cnsc3)ccc2c1 [I(g)]
Relative Protein [1, 5]: 0.26
Relative Protein [1, 6]: 0.17
Relative Protein [1, 7]: 0.16
Relative Specific Activity of BO [3, 5]: 2.6 ± 0.2
Relative Specific Activity of BO [3, 6]: 8.5 ± 0.1
Relative Specific Activity of BO [3, 7]: 16.3 ± 3.3

Structure (SMILES): CSC(=S)NCc1cc2ccccc2[nH]1 [Isobrassinin]
Inhibiton (%) of BO (brassinin oxidase (BO) [2]; test compound 0.10 mM): 11 ± 5%
Inhibiton (%) of BO (brassinin oxidase (BO) [2]; test compound 0.30 mM): 23 ± 6%

Structure (SMILES): c1ccc2[nH]c(-c3cscn3)nc2c1 [Thiabendazole, reference compound]
Relative Protein [1, 5]: 0.35
Relative Protein [1, 6]: 0.28
Relative Protein [1, 7]: 0.06
Inhibiton (%) of BO (brassinin oxidase (BO) [2]; test compound 0.10 mM): 16 ± 3%
Inhibiton (%) of BO (brassinin oxidase (BO) [2]; test compound 0.30 mM): 25 ± 7%
Relative Specific Activity of BO [3, 5]: 1.9 ± 0.2
Relative Specific Activity of BO [3, 6]: 4.1 ± 0.2
Relative Specific Activity of BO [3, 7]: 4.9 ± 0.3
BO inhibitory activity (brassinin oxidase (BO) [4]): ca. 25%

Structure (SMILES): CSC(=S)NCc1c[nH]c2ccccc12 [brassinin, Brassinin]
Km (brassinin oxidase (BO) [2]; under the enzyme assay conditions): 150 µM

The next lines start with results.

Inhibiton (%) of BO (brassinin oxidase (BO) [2]; test compound 0.10 mM): 30 ± 4%
Inhibiton (%) of BO (brassinin oxidase (BO) [2]; test compound 0.30 mM): 53 ± 4%
Inhibiton (%) of BO (brassinin oxidase (BO) [2]; test compound 0.30 mM, listed as Camalexin I(h)): 53 ± 7%
Inhibiton (%) of BO (brassinin oxidase (BO) [2]; test compound 0.30 mM, listed as camalexin): 53%
Structure (SMILES): c1ccc2c(-c3nccs3)c[nH]c2c1 [Camalexin]
Relative Protein [1, 5]: 0.28
Relative Protein [1, 6]: 0.24
Relative Protein [1, 7]: 0.10
Relative Specific Activity of BO [3, 5]: 4.5 ± 0.5
Relative Specific Activity of BO [3, 6]: 6.9±0.3
Relative Specific Activity of BO [3, 7]: 2.5 ± 0.1

Inhibiton (%) of BO (brassinin oxidase (BO) [2]; test compound 0.10 mM): 47 ± 5%
Inhibiton (%) of BO (brassinin oxidase (BO) [2]; test compound 0.30 mM, listed as 5-Fluorocamalexin I(a)): 63 ± 2%
Inhibiton (%) of BO (brassinin oxidase (BO) [2]; test compound 0.30 mM, listed as 5-fluorocamalexin I(a)): ca. 63%
Structure (SMILES): Fc1ccc2[nH]cc(-c3nccs3)c2c1 [I(a), 5-Fluorocamalexin]
Relative Protein [1, 5]: 0.30
Relative Protein [1, 6]: 0.23
Relative Protein [1, 7]: 0.19
Relative Specific Activity of BO [3, 5]: 5.0 ± 0.2
Relative Specific Activity of BO [3, 6]: 4.9 ± 0.4
Relative Specific Activity of BO [3, 7]: 7.9 ± 0.6

Inhibiton (%) of BO (brassinin oxidase (BO) [2]; test compound 0.10 mM): 29 ± 10%
Inhibiton (%) of BO (brassinin oxidase (BO) [2]; test compound 0.30 mM): 46%
Structure (SMILES): Fc1ccc2c(-c3nccs3)c[nH]c2c1 [I(b), 6-Fluorocamalexin]
Relative Protein [1, 5]: 0.36
Relative Protein [1, 6]: 0.28
Relative Protein [1, 7]: 0.24
Relative Specific Activity of BO [3, 5]: 3.9 ± 0.1
Relative Specific Activity of BO [3, 6]: 4.0 ± 0.2
Relative Specific Activity of BO [3, 7]: 1.8 ± 0.3

Inhibiton (%) of BO (brassinin oxidase (BO) [2]; test compound 0.10 mM): 51 ± 4%
Inhibiton (%) of BO (brassinin oxidase (BO) [2]; test compound 0.30 mM, listed as 5-Methoxycamalexin I(c)): 72 ± 1%
Inhibiton (%) of BO (brassinin oxidase (BO) [2]; test compound 0.30 mM, listed as 5-methoxycamalexin I(c)): ca. 72%
Structure (SMILES): COc1ccc2[nH]cc(-c3nccs3)c2c1 [I(c), 5-Methoxycamalexin]
Relative Protein [1, 5]: 0.28
Relative Protein [1, 6]: 0.24
Relative Protein [1, 7]: 0.13
Relative Specific Activity of BO [3, 5]: 1.7 ± 0.3
Relative Specific Activity of BO [3, 6]: 5.8 ± 0.6
Relative Specific Activity of BO [3, 7]: 1.6 ± 0.3

Inhibiton (%) of BO (brassinin oxidase (BO) [2]; test compound 0.10 mM): 41 ± 6%
Inhibiton (%) of BO (brassinin oxidase (BO) [2]; test compound 0.30 mM, listed as 6-Methoxycamalexin I(d)): 63 ± 5%
Inhibiton (%) of BO (brassinin oxidase (BO) [2]; test compound 0.30 mM, listed as 6-methoxycamalexin I(b)): ca. 63%
Structure (SMILES): COc1ccc2c(-c3nccs3)c[nH]c2c1 [I(d), 6-Methoxycamalexin]
Relative Protein [1, 5]: 0.27
Relative Protein [1, 6]: 0.16
Relative Protein [1, 7]: 0.11
Relative Specific Activity of BO [3, 5]: 2.3 ± 0.1
Relative Specific Activity of BO [3, 6]: 3.7 ± 0.2
Relative Specific Activity of BO [3, 7]: 4.0 ± 0.1
